Measurements reported in patent US20240228535A1 (priority 2022, published 2024).

Molecular target: SARS2 coronavirus 3CL protease (Severe acute respiratory syndrome coronavirus 2, UniProt P0DTD1)
Test: biochemical
Conditions: 5 nM enzyme, 30 min pre-incubation with compound, 15 μM peptide substrate, 4 h at room temperature; read-out: FRET Potency (nM); IC50 values in the SARS2 3CLPro FRET assay

SMILES | IC50 [nM]
C[C@@H]1C[C@@H](C[C@H](NC(=O)c2cc(Cl)ccc2NC(=O)N2CCOCC2)C(=O)C(=O)NC2CC2)C(=O)N1 [Example 194, N-[4-chloro-2-[[(1S)-3-(cyclopropylamino)-1-[[(3S,5R)-5-methyl-2-oxo-pyrrolidin-3-yl]methyl]-2,3-dioxo-propyl]carbamoyl]phenyl] morpholine-4-carboxamide] | 6.8
CNC(=O)C(=O)[C@H](C[C@@H]1CCNC1=O)NC(=O)c1cc(F)c(F)cc1NC(=O)OC [Example 109, methyl N-[4,5-difluoro-2-[[(1S)-3-(methylamino)-2,3-dioxo-1-[[(3S)-2-oxopyrrolidin-3-yl]methyl]propyl]carbamoyl]phenyl]carbamate] | 6
CNC(=O)C(=O)[C@H](C[C@@H]1C[C@@H](C)NC1=O)NC(=O)c1cc(Cl)ccc1NC(=O)OC1CC1(F)F (stereo partly drawn) [Example 171, (2,2-difluorocyclopropyl) N-[4-chloro-2-[(1S)-3-(methylamino)-1-[[(3S,5R)-5-methyl-2-oxo-pyrrolidin-3-yl]methyl]-2,3-dioxo-propyl]carbamoyl]phenyl] carbamate] | 3.2
CNC(=O)C(=O)[C@H](C[C@@H]1CCNC1=O)NC(=O)c1cc(Cl)ccc1NC(=O)c1ccnc(C(F)(F)F)c1 [Example 90] | 12.3
C[C@@H]1C[C@@H](C[C@H](NC(=O)c2cc(Cl)ccc2NC(=O)c2cnc(C(F)(F)F)cn2)C(=O)C(=O)NC2CC2)C(=O)N1 [Example 226, N-[4-chloro-2-[[(1S)-3-(cyclopropylamino)-1-[[(3S,5R)-5-methyl-2-oxo-pyrrolidin-3-yl]methyl]-2,3-dioxo-propyl]carbamoyl]phenyl]-5-(trifluoromethyl)pyrazine-2-carboxamide] | 19.1
CNC(=O)C(=O)[C@H](C[C@@H]1CCNC1=O)NC(=O)c1cc(Cl)ccc1NC(=O)OCC1CC1 [Example 136, cyclopropylmethyl N-[4-chloro-2-[[(1S)-3-(methylamino)-2,3-dioxo-1-[[(3S)-2-oxopyrrolidin-3-yl]methyl]propyl]carbamoyl]phenyl]carbamate] | 3.6
C[C@@H]1C[C@@H](C[C@H](NC(=O)c2cc(OC(F)F)ccc2NC(=O)c2cccc(C(F)(F)F)c2)C(=O)C(=O)NC2CC2)C(=O)N1 [Example 20, N-[(1S)-3-(cyclopropylamino)-1-[[(3S,5R)-5-methyl-2-oxo-pyrrolidin-3-yl]methyl]-2,3-dioxo-propyl]-5-(difluoromethoxy)-2-[[3-(trifluoromethyl)benzoyl]amino]benzamide] | 26.4
C[C@@H]1C[C@@H](C[C@H](NC(=O)c2cc(Cl)ccc2NC(=O)C2CC23CC3)C(=O)C(=O)NC2CC2)C(=O)N1 (stereo partly drawn) [Example 82, N-[4-chloro-2-[[(1S)-3-(cyclopropylamino)-1-[[(3S,5R)-5-methyl-2-oxo-pyrrolidin-3-yl]methyl]-2,3-dioxo-propyl]carbamoyl]phenyl] spiro[2.2]pentane-2-carboxamide] | 10.8
CNC(=O)C(=O)[C@H](C[C@@H]1CCNC1=O)NC(=O)c1cc(Cl)ccc1NC(=O)OCC(F)(F)F [Example 163, 2,2,2-trifluoroethyl N-[4-chloro-2-[[(1S)-3-(methylamino)-2,3-dioxo-1-[[(3S)-2-oxopyrrolidin-3-yl]methyl]propyl]carbamoyl]phenyl]carbamate] | 8.6
CC(C(=O)Nc1ccc(Cl)cc1C(=O)N[C@@H](C[C@@H]1C[C@@H](C)NC1=O)C(=O)C(=O)NC1CC1)c1cscn1 (stereo partly drawn) [Example 93, 5-chloro-N-[(1S)-3-(cyclopropylamino)-1-[[(3S,5R)-5-methyl-2-oxo-pyrrolidin-3-yl]methyl]-2,3-dioxo-propyl]-2-(2-thiazol-4-ylpropanoylamino)benzamide] | 12.6
O=C(Nc1cc(F)c(F)cc1C(=O)N[C@@H](C[C@@H]1CCNC1=O)C(=O)C(=O)NC1CC1)OC1CC1 [Example 150] | 17.9
CNC(=O)C(=O)[C@H](C[C@@H]1C[C@@H](C)NC1=O)NC(=O)c1cc(Cl)ccc1NC(=O)C1CCCC(F)(F)C1 (single isomer, unassigned) [Example 199] | 18.7
O=C(NC1CC1)C(=O)[C@H](C[C@@H]1CCCNC1=O)NC(=O)c1cc(Cl)ccc1NC(=O)c1ccnc(C(F)(F)F)c1 [Example 234, N-[4-chloro-2-[[(1S)-3-(cyclopropylamino)-2,3-dioxo-1-[[(3S)-2-oxo-3-piperidyl]methyl]propyl]carbamoyl]phenyl]-2-(trifluoromethyl)pyridine-4-carboxamide] | 17.1
C[C@@H]1C[C@@H](C[C@H](NC(=O)c2cc(Cl)cc(F)c2NC(=O)C23CC(F)(C2)C3)C(=O)C(=O)NC2CC2)C(=O)N1 [Example 206] | 12.8
C[C@@H]1C[C@@H](C[C@H](NC(=O)c2cc(Cl)ccc2NC(=O)OC2CC2)C(=O)C(=O)NC2CC2)C(=O)N1 [Example 160, cyclopropyl N-[4-chloro-2-[[(1S)-3-(cyclopropylamino)-1-[[(3S,5R)-5-methyl-2-oxo-pyrrolidin-3-yl]methyl]-2,3-dioxo-propyl]carbamoyl]phenyl] carbamate] | 8.8
C[C@@H]1C[C@@H](C[C@H](NC(=O)c2cc(Cl)ccc2NC(=O)C2CCOCC2)C(=O)C(=O)NC2CC2)C(=O)N1 [Example 192, N-[4-chloro-2-[[(1S)-3-(cyclopropylamino)-1-[[(3S,5R)-5-methyl-2-oxo-pyrrolidin-3-yl]methyl]-2,3-dioxo-propyl]carbamoyl]phenyl]tetra-hydropyran-4-carboxamide] | 10.3
C[C@@H]1C[C@@H](C[C@H](NC(=O)c2cc(C(F)(F)F)ccc2NC(=O)c2cccc(C(F)(F)F)c2)C(=O)C(=O)NC2CC2)C(=O)N1 [Example 64, N-[(1S)-3-(cyclopropylamino)-1-[[(3S,5R)-5-methyl-2-oxo-pyrrolidin-3-yl]methyl]-2,3-dioxo-propyl]-5-(trifluoromethyl)-2-[[3-(trifluoromethyl)benzoyl]amino]benzamide] | 7.3
C[C@@H]1C[C@@H](C[C@H](NC(=O)c2cc(Cl)ccc2NC(=O)CCC(F)(F)F)C(=O)C(=O)NCCO)C(=O)N1 [Example 117, 5-chloro-N-[(1S)-3-(2-hydroxyethylamino)-1-[[(3S,5R)-5-methyl-2-oxo-pyrrolidin-3-yl]methyl]-2,3-dioxo-propyl]-2-(4,4,4-trifluorobutanoylamino) benzamide] | 9.3
C[C@@H]1C[C@@H](C[C@H](NC(=O)c2cc(Cl)ccc2NC(=O)C2CC2C(F)(F)F)C(=O)C(=O)NC2CC2)C(=O)N1 (stereo partly drawn) [Example 85, 5-chloro-N-[(1S)-3-(cyclopropylamino)-1-[[(3S,5R)-5-methyl-2-oxo-pyrrolidin-3-yl]methyl]-2,3-dioxo-propyl]-2-[[2-(trifluoromethyl)cyclopropane-carbonyl]amino]benzamide] | 15.2
CNC(=O)C(=O)[C@H](C[C@@H]1C[C@@H](C)NC1=O)NC(=O)c1cc(Cl)ccc1NC(=O)C1CC1C(F)(F)F (stereo partly drawn) [Example 189, 5-chloro-N-[(1S)-3-(methylamino)-1-[[(3S,5R)-5-methyl-2-oxo-pyrrolidin-3-yl]methyl]-2,3-dioxo-propyl]-2-[[2-(trifluoromethyl)cyclopropane-carbonyl]amino]benzamide] | 3.5
C[C@@H]1C[C@@H](C[C@H](NC(=O)c2cc(C(F)F)ccc2NC(=O)C2(C(F)(F)F)CC2)C(=O)C(=O)NC2CC2)C(=O)N1 [Example 220, N-[(1S)-3-(cyclopropylamino)-1-[[(3S,5R)-5-methyl-2-oxo-pyrrolidin-3-yl]methyl]-2,3-dioxo-propyl]-5-(difluoromethyl)-2-[[1-(trifluoromethyl)cyclopropane-carbonyl]amino]benzamide] | 60.3
CNC(=O)C(=O)[C@H](C[C@@H]1C[C@@H](C)NC1=O)NC(=O)c1cc(F)c(F)cc1NC(=O)OC1CC1 [Example 141, cyclopropyl N-[4,5-difluoro-2-[[(1S)-3-(methylamino)-1-[[(3S,5R)-5-methyl-2-oxo-pyrrolidin-3-yl]methyl]-2,3-dioxo-propyl]carbamoyl]phenyl] carbamate] | 19.8
CNC(=O)C(=O)[C@H](C[C@@H]1C[C@@H](C)NC1=O)NC(=O)c1cc(Cl)ccc1NC(=O)OC1CCCC1 [Example 167, cyclopentyl N-[4-chloro-2-[[(1S)-3-(methylamino)-1-[[(3S,5R)-5-methyl-2-oxo-pyrrolidin-3-yl]methyl]-2,3-dioxo-propyl]carbamoyl]phenyl] carbamate] | 5.5
CNC(=O)C(=O)[C@H](C[C@@H]1C[C@@H](C)NC1=O)NC(=O)c1cc(Cl)ccc1NC(=O)OCC1CC1(F)F (stereo partly drawn) [Example 187, (2,2-difluorocyclopropyl)methyl N-[4-chloro-2-[(1S)-3-(methylamino)-1-[[(3S,5R)-5-methyl-2-oxo-pyrrolidin-3-yl]methyl]-2,3-dioxo-propyl]carbamoyl]phenyl] carbamate] | 2.5
CNC(=O)C(=O)[C@H](C[C@@H]1C[C@@H](C)NC1=O)NC(=O)c1cc(Cl)ccc1NC(=O)C1CC1(F)F (single isomer, unassigned) [Example 60] | 7.9
CNC(=O)C(=O)[C@H](C[C@@H]1CCNC1=O)NC(=O)c1cc(Cl)ccc1NC(=O)C1CC1C(F)(F)F (stereo partly drawn) [Example 176, 5-chloro-N-[(1S)-3-(methylamino)-2,3-dioxo-1-[[(3S)-2-oxopyrrolidin-3-yl]methyl]propyl]-2-[[2-(trifluoromethyl)cyclopropane-carbonyl]amino]benzamide] | 2.5
CNC(=O)C(=O)[C@H](C[C@@H]1C[C@@H](C)NC1=O)NC(=O)c1cc(Cl)ccc1NC(=O)C(C)c1ccnc(C(F)(F)F)c1 (stereo partly drawn) [Example 228, 5-chloro-N-[(1S)-3-(methylamino)-1-[[(3S,5R)-5-methyl-2-oxo-pyrrolidin-3-yl]methyl]-2,3-dioxo-propyl]-2-[2-[2-(trifluoromethyl)-4-pyridyl]propanoylamino] benzamide] | 6.1
CNC(=O)C(=O)[C@H](C[C@@H]1C[C@@H](C)NC1=O)NC(=O)c1ccccc1NC(=O)OC [Example 103, methyl N-[2-[[(1S)-3-(methylamino)-1-[[(3S,5R)-5-methyl-2-oxo-pyrrolidin-3-yl]methyl]-2,3-dioxo-propyl]carbamoyl]phenyl] carbamate] | 86.2
